Experimental findings from US20220363686A1 (AiCuris GmbH & Co. KG, priority 2018, published 2022) are described below.

In one data set the test system is HBV. In words: Determination of HBV DNA from the supernatants of HepAD38 cells (anti-HBV activity). Type of data set: cell-based, hepatitis B virus. The conditions noted are these: Hepatitis B virus, HePAD38, 144 h, HBV DNA in HepAD38 supernatant, day 6, qPCR; read-out: Cell Activity. Put shortly:
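EC50 derived by non-linear regression of relative HBV DNA copy numbers, measured by qPCR (plasmid standards) in day-6 filtered supernatants. Before this, HepAD38 cells were exposed to serial half-log compound dilutions without tetracycline, releasing viral expression; cultures kept at 37 °C, 5% CO2.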

The nature of data set [1]: Cell viability assay (AlamarBlue). The following applies: human, HepAD38 cells. In general terms: Resazurin is reduced to fluorescent resorufin, in cell work by metabolically active cells.
In data set [2] the target is HBV core protein (C-terminal truncated core protein containing 149 amino acids of the N-terminal assembly domain) (UniProt P03146). Nature of the data set: Biochemical capsid assembly assay (fluorescence quenching). Further details: rows headed: Assembly Activity; other: BODIPY-FL labelled core protein, assembly started with NaCl, read after 6 min. The conditions noted are these: read-out: Assembly Activity; BODIPY-FL labelled core protein, assembly started with NaCl, read after 6 min. Put shortly:
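N-terminal assembly domain (residues 1–149) plus C-terminal Cys150, E. coli-expressed, BODIPY-FL-maleimide labelled, used at 1.0–2.0 μM in 50 mM HEPES pH 7.5 with 0.5% DMSO. Assembly started with NaCl ([…]); fluorescence quenching (ex 477/em 525 nm) read after 6 min. 8-point compound series; EC50 by non-linear regression.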

Molecules are shown by their SMILES.

Sequence of HBV core protein (C-terminal truncated core protein containing 149 amino acids of the N-terminal assembly domain) (P03146 whole entry, the tested form may be a part): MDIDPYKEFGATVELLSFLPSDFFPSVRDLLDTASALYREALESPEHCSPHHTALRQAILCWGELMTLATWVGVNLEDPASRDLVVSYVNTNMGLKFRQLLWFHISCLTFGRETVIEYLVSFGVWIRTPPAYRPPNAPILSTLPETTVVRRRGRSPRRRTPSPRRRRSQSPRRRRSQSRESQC

In general, CC50 refers to the concentration that lowers cell viability or growth by half. High values mean better tolerance by the cells, low ones harm at low concentration. Consider `O=C(c1cc2ccccc2[nH]1)N1CCn2ncc(S(=O)(=O)N3CCOCC3)c2C1` [Example 38, 2-[3-(morpholine-4-sulfonyl)-4H,5H,6H,7H-pyrazolo[1,5-a]pyrazine-5-carbonyl]-1H-indole], for which, in the data set on HBV, the EC50 is < 1 µM. Besides, the CC50 at 6 days in data set [1] is > 10 µM. The IC50 in data set [2] was < 5 µM.
The matching figures for `O=C(c1cc2ccccc2[nH]1)N1CCn2ncc(S(=O)(=O)N3CCCC3)c2C1` [Example 39, 2-[3-(pyrrolidine-1-sulfonyl)-4H,5H,6H,7H-pyrazolo[1,5-a]pyrazine-5-carbonyl]-1H-indole]: < 1 µM, > 10 µM and < 5 µM.
The matching figures for `CN(C)S(=O)(=O)c1cnn2c1CN(C(=O)c1cc3ccccc3[nH]1)CC2` [Example 40, 5-(1H-indole-2-carbonyl)-N,N-dimethyl-4H,5H,6H,7H-pyrazolo[1,5-a]pyrazine-3-sulfonamide]: < 1 µM, > 10 µM and < 5 µM.
Taken in the same sequence, the figures for `CNS(=O)(=O)c1cnn2c1CN(C(=O)c1cc3ccccc3[nH]1)CC2` [Example 41, 5-(1H-indole-2-carbonyl)-N-methyl-4H,5H,6H,7H-pyrazolo[1,5-a]pyrazine-3-sulfonamide] were < 1 µM, > 10 µM and < 5 µM.
For the compound `O=C(c1cc2ccccc2[nH]1)N1CCn2ncc(C(=O)N3CC4C(C3)C4(F)F)c2C1` (stereo not drawn) [Example 42, 2-(3-{6,6-difluoro-3-azabicyclo[3.1.0]hexane-3-carbonyl}-4H,5H,6H,7H-pyrazolo[1,5-a]pyrazine-5-carbonyl)-1H-indole], in the data set with HBV, the EC50 was < 1 µM. For the same compound, the CC50 at 6 days in data set [1] was > 10 µM. Besides, the IC50 in data set [2] is < 5 µM.
As to `O=C(c1cc2ccccc2[nH]1)N1CCn2ncc(C(=O)N3CC4CC4C3)c2C1` (stereo not drawn) [Example 43, 2-(3-{3-azabicyclo[3.1.0]hexane-3-carbonyl}-4H,5H,6H,7H-pyrazolo[1,5-a]pyrazine-5-carbonyl)-1H-indole], the EC50 in the data set on HBV is < 100 µM. For the same compound, in data set [1], the CC50 at 6 days is > 10 µM. Also, in data set [2], the IC50 is < 5 µM.
Consider `CN(Cc1ccccn1)C(=O)c1cnn2c1CN(C(=O)c1cc3ccccc3[nH]1)CC2` [Example 44, 5-(1H-indole-2-carbonyl)-N-methyl-N-[(pyridin-2-yl)methyl]-4H,5H,6H,7H-pyrazolo[1,5-a]pyrazine-3-carboxamide], for which, in the data set on HBV, the EC50 was < 1 µM. The CC50 at 6 days in data set [1] was > 10 µM. Besides, the IC50 in data set [2] is < 5 µM.
Taken in the same sequence, the figures for `O=C(c1cc2ccccc2[nH]1)N1CCn2ncc(C3(O)CCC3)c2C1` [Example 45, 1-[5-(1H-indole-2-carbonyl)-4H,5H,6H,7H-pyrazolo[1,5-a]pyrazin-3-yl]cyclobutan-1-ol] were 1 to 10 µM, > 10 µM and 5 to 10 µM.
Taken in the same sequence, the figures for `CN(C(=O)c1cnn2c1CN(C(=O)c1cc3ccccc3[nH]1)CC2)C1(c2ccncc2)CC1` [Example 46, 5-(1H-indole-2-carbonyl)-N-methyl-N-[1-(pyridin-4-yl)cyclopropyl]-4H,5H,6H,7H-pyrazolo[1,5-a]pyrazine-3-carboxamide] were < 1 µM, > 10 µM and < 5 µM.
The matching figures for `CN(C(=O)c1cnn2c1CN(C(=O)c1cc3ccccc3[nH]1)CC2)C1(c2ncccn2)CC1` [Example 47, 5-(1H-indole-2-carbonyl)-N-methyl-N-[1-(pyrimidin-2-yl)cyclopropyl]-4H,5H,6H,7H-pyrazolo[1,5-a]pyrazine-3-carboxamide]: < 1 µM, > 10 µM and < 5 µM.
With `O=C(c1cc2ccccc2[nH]1)N1CCn2ncc(C(=O)N3CCC4CC43)c2C1` (stereo not drawn) [Example 48, 2-(3-{2-azabicyclo[3.1.0]hexane-2-carbonyl}-4H,5H,6H,7H-pyrazolo[1,5-a]pyrazine-5-carbonyl)-1H-indole], in the data set with HBV, the EC50 is 1 to 10 µM. In data set [1], the CC50 at 6 days is > 10 µM. Further, in data set [2], the IC50 was < 5 µM.
For `O=C(c1cc2ccccc2[nH]1)N1CCn2ncc(N3CC4(CC4)CC3=O)c2C1` [Example 49, 5-[5-(1H-indole-2-carbonyl)-4H,5H,6H,7H-pyrazolo[1,5-a]pyrazin-3-yl]-5-azaspiro[2.4]heptan-6-one], the EC50 with HBV was < 1 µM. Further, the CC50 at 6 days in data set [1] was > 10 µM. Moreover, in data set [2], the IC50 was < 5 µM.
Taken in the same sequence, the figures for `COCC1(NC(=O)c2cnn3c2CN(C(=O)c2cc4ccccc4[nH]2)CC3)CC1` [Example 50, 5-(1H-indole-2-carbonyl)-N-[1-(methoxymethyl)cyclopropyl]-4H,5H,6H,7H-pyrazolo[1,5-a]pyrazine-3-carboxamide] were < 1 µM, > 10 µM and < 5 µM.
Taken in the same sequence, the figures for `O=C(c1cc2ccccc2[nH]1)N1CCn2ncc(C3(O)CC(c4ccccc4)C3)c2C1` (stereo not drawn) [Example 51, 1-[5-(1H-indole-2-carbonyl)-4H,5H,6H,7H-pyrazolo[1,5-a]pyrazin-3-yl]-3-phenylcyclobutan-1-ol] were 1 to 10 µM, > 10 µM and 5 to 10 µM.
Taken in the same sequence, the figures for `CN(CCO)C(=O)c1cnn2c1CN(C(=O)c1cc3c(Cl)cccc3[nH]1)CC2` [Example 52, 5-(4-chloro-1H-indole-2-carbonyl)-N-(2-hydroxyethyl)-N-methyl-4H,5H,6H,7H-pyrazolo[1,5-a]pyrazine-3-carboxamide] were < 1 µM, > 10 µM and < 5 µM.
As to `CN(C(=O)c1cnn2c1CN(C(=O)c1cc3ccccc3[nH]1)CC2)C1(CNCC(F)F)CC1` [Example 53, N-(1-{[(2,2-difluoroethyl)amino]methyl}cyclopropyl)-5-(1H-indole-2-carbonyl)-N-methyl-4H,5H,6H,7H-pyrazolo[1,5-a]pyrazine-3-carboxamide], the EC50 in the data set on HBV is < 1 µM. Also, the CC50 at 6 days in data set [1] was > 10 µM. In addition, the IC50 in data set [2] is < 5 µM.
Taken in the same sequence, the figures for `O=C(NCCOC(F)F)c1cnn2c1CN(C(=O)c1cc3ccccc3[nH]1)CC2` [Example 54, N-[2-(difluoromethoxy)ethyl]-5-(1H-indole-2-carbonyl)-4H,5H,6H,7H-pyrazolo[1,5-a]pyrazine-3-carboxamide] were 1 to 10 µM, > 10 µM and < 5 µM.
In the case of `CN(Cc1ccnn1C)C(=O)c1cnn2c1CN(C(=O)c1cc3ccccc3[nH]1)CC2` [Example 55, 5-(1H-indole-2-carbonyl)-N-methyl-N-[(1-methyl-1H-pyrazol-5-yl)methyl]-4H,5H,6H,7H-pyrazolo[1,5-a]pyrazine-3-carboxamide], the EC50 with HBV was < 1 µM. Further, the 50% cytotoxic concentration (CC50) at 6 days in data set [1] is > 10 µM. The IC50 in data set [2] was < 5 µM.
Taken in the same sequence, the figures for `O=C(c1cc2ccccc2[nH]1)N1CCn2ncc(C(=O)N3CCC(F)(F)C34CC4)c2C1` [Example 56, 2-(3-{7,7-difluoro-4-azaspiro[2.4]heptane-4-carbonyl}-4H,5H,6H,7H-pyrazolo[1,5-a]pyrazine-5-carbonyl)-1H-indole] were < 1 µM, > 10 µM and < 5 µM.
